According to PubChem BioAssay AID2060900 (Molecular Pharmacology Branch, DTP, NCI, 2025):

System: 521955-158-R2-J5-PDC complex spheroids, viability
Assay: Anticancer human tumor 521955-158-R2-J5-PDC patient-derived pancreatic carcinoma cell line growth inhibition [RAS]
Details: for viability, T/C: stronger effect = lower value
Outline: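 Multi-cell-type spheroids: tumor cells plus HUVEC endothelial cells and mesenchymal stem cells. RAS-pathway inhibitors were combined with targeted agents, each dosed in half-log steps down from clinical Cmax, or from 10 microM when Cmax was unknown.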

[1] = curve of first compound, second compound 0.0316 µM
[2] = curve of first compound, second compound 0.1 µM
[3] = curve of first compound, second compound 0.316 µM
[4] = curve of first compound, second compound 1 µM
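Note: compound exposure lasted seven days before the viability read.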
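Throughout, for viability, T/C: spheroids also contain HUVEC endothelial cells and mesenchymal stem cells as stroma.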

`CC1(C)CCC(Nc2ncc(C(F)(F)F)c(-c3c[nH]c4c(P(C)(C)=O)c(C#N)ccc34)n2)CN1` (stereo not given) + C#Cc1c(F)ccc2cc(O)cc(-c3ncc4c(N5CC6CCC(C5)N6)nc(OCC56CCCN5CC(F)C6)nc4c3F)c12 was tested. Which IC50 [1] did it give?
Its IC50 is less than 0.949 nM.

And the IC50 [2]?
The IC50 was less than 0.949 nM.

What about the IC50 [3] of the same compound?
The IC50 was less than 0.949 nM.

And the IC50 [4]?
Its IC50 is less than 0.949 nM.

What about the IC50 (curve of first compound, second compound 3.16 µM) of the same compound?
Its IC50 is less than 0.949 nM.

What about the IC50 (curve of first compound, second compound 10 µM) of the same compound?
Its IC50 is less than 0.949 nM.

And the viability, T/C (second compound 0.0316 µM, first compound 0.000949 µM)?
Its viability, T/C is 43.7%.

What about the viability, T/C (second compound 0.0316 µM, first compound 0.003 µM) of the same compound?
Its viability, T/C is 38.4%.

What about the viability, T/C (second compound 0.0316 µM, first compound 0.00949 µM) of the same compound?
The viability, T/C was 37.1%.

What about the viability, T/C (second compound 0.0316 µM, first compound 0.03 µM) of the same compound?
Its viability, T/C is 31.4%.

What about the viability, T/C (second compound 0.0316 µM, first compound 0.0949 µM) of the same compound?
The viability, T/C was 43.7%.

What about the viability, T/C (second compound 0.0316 µM, first compound 0.3 µM) of the same compound?
The viability, T/C was 41.9%.

And the viability, T/C (second compound 0.1 µM, first compound 0.000949 µM)?
Its viability, T/C is 43.5%.

And the viability, T/C (second compound 0.1 µM, first compound 0.003 µM)?
Its viability, T/C is 40.8%.

What about the viability, T/C (second compound 0.1 µM, first compound 0.00949 µM) of the same compound?
The viability, T/C was 33%.

And the viability, T/C (second compound 0.1 µM, first compound 0.03 µM)?
The viability, T/C was 29.6%.

And the viability, T/C (second compound 0.1 µM, first compound 0.0949 µM)?
The viability, T/C was 39.7%.

What about the viability, T/C (second compound 0.1 µM, first compound 0.3 µM) of the same compound?
Its viability, T/C is 33.8%.

What about the viability, T/C (second compound 0.316 µM, first compound 0.000949 µM) of the same compound?
Its viability, T/C is 40.4%.

And the viability, T/C (second compound 0.316 µM, first compound 0.003 µM)?
Its viability, T/C is 37.5%.

What about the viability, T/C (second compound 0.316 µM, first compound 0.00949 µM) of the same compound?
The viability, T/C was 29.9%.

What about the viability, T/C (second compound 0.316 µM, first compound 0.03 µM) of the same compound?
Its viability, T/C is 29.4%.

What about the viability, T/C (second compound 0.316 µM, first compound 0.0949 µM) of the same compound?
Its viability, T/C is 30.3%.

What about the viability, T/C (second compound 0.316 µM, first compound 0.3 µM) of the same compound?
Its viability, T/C is 29.2%.

And the viability, T/C (second compound 1 µM, first compound 0.000949 µM)?
Its viability, T/C is 38.5%.

And the viability, T/C (second compound 1 µM, first compound 0.003 µM)?
The viability, T/C was 31.8%.

And the viability, T/C (second compound 1 µM, first compound 0.00949 µM)?
Its viability, T/C is 25.5%.

What about the viability, T/C (second compound 1 µM, first compound 0.03 µM) of the same compound?
The viability, T/C was 26.8%.

What about the viability, T/C (second compound 1 µM, first compound 0.0949 µM) of the same compound?
The viability, T/C was 24.3%.

And the viability, T/C (second compound 1 µM, first compound 0.3 µM)?
The viability, T/C was 25%.

What about the viability, T/C (second compound 3.16 µM, first compound 0.000949 µM) of the same compound?
Its viability, T/C is 33.5%.

What about the viability, T/C (second compound 3.16 µM, first compound 0.003 µM) of the same compound?
The viability, T/C was 27.8%.

And the viability, T/C (second compound 3.16 µM, first compound 0.00949 µM)?
Its viability, T/C is 25.1%.

What about the viability, T/C (second compound 3.16 µM, first compound 0.03 µM) of the same compound?
The viability, T/C was 25%.

What about the viability, T/C (second compound 3.16 µM, first compound 0.0949 µM) of the same compound?
The viability, T/C was 21.1%.

And the viability, T/C (second compound 3.16 µM, first compound 0.3 µM)?
Its viability, T/C is 24.8%.

And the viability, T/C (second compound 10 µM, first compound 0.000949 µM)?
The viability, T/C was 29.7%.

What about the viability, T/C (second compound 10 µM, first compound 0.003 µM) of the same compound?
The viability, T/C was 25.9%.

And the viability, T/C (second compound 10 µM, first compound 0.00949 µM)?
The viability, T/C was 20.2%.

What about the viability, T/C (second compound 10 µM, first compound 0.03 µM) of the same compound?
Its viability, T/C is 21.2%.

What about the viability, T/C (second compound 10 µM, first compound 0.0949 µM) of the same compound?
The viability, T/C was 21.7%.

What about the viability, T/C (second compound 10 µM, first compound 0.3 µM) of the same compound?
Its viability, T/C is 20.1%.

`C=CC(=O)N1CCN(c2nc(OCC3CCCN3C)nc3c(F)c(-c4nc(N)cc(C)c4C(F)(F)F)c(Cl)cc23)C(C)C1` (stereo not given) was tested. Which IC50 (compound alone, run of 06/10/2024) did it give?
The IC50 was greater than 1000 nM.

What about the IC50 (curve of compound) of the same compound?
The IC50 was greater than 1000 nM.

What does the source list for `CC(=O)OC12COC1CC(O)C1(C)C(=O)C(O)C3=C(C)C(OC(=O)C(O)C(NC(=O)OC(C)(C)C)c4ccccc4)CC(O)(C(OC(=O)c4ccccc4)C21)C3(C)C` (stereo not given) + C=CC(=O)N1CCN(c2nc(OCC3CCCN3C)nc3c(F)c(-c4nc(N)cc(C)c4C(F)(F)F)c(Cl)cc23)C(C)C1?
IC50 (curve of first compound, second compound 0.00316 µM): < 31.6 nM; IC50 (curve of first compound, second compound 0.01 µM): < 31.6 nM; IC50 [1]: < 31.6 nM; IC50 [2]: < 31.6 nM; IC50 [3]: < 31.6 nM; IC50 [4]: < 31.6 nM; viability, T/C (second compound 0.00316 µM, first compound 0.0316 µM): 37.3%; viability, T/C (second compound 0.00316 µM, first compound 0.1 µM): 34.1%; viability, T/C (second compound 0.00316 µM, first compound 0.316 µM): 24.9%; viability, T/C (second compound 0.00316 µM, first compound 1 µM): 29.8%; viability, T/C (second compound 0.00316 µM, first compound 3.16 µM): 40.8%; viability, T/C (second compound 0.00316 µM, first compound 10 µM): 64.4%; viability, T/C (second compound 0.01 µM, first compound 0.0316 µM): 38.5%; viability, T/C (second compound 0.01 µM, first compound 0.1 µM): 34.3%; viability, T/C (second compound 0.01 µM, first compound 0.316 µM): 21.5%; viability, T/C (second compound 0.01 µM, first compound 1 µM): 30.6%; viability, T/C (second compound 0.01 µM, first compound 3.16 µM): 41.4%; viability, T/C (second compound 0.01 µM, first compound 10 µM): 52.6%; viability, T/C (second compound 0.0316 µM, first compound 0.0316 µM): 39.7%; viability, T/C (second compound 0.0316 µM, first compound 0.1 µM): 40.6%; viability, T/C (second compound 0.0316 µM, first compound 0.316 µM): 28.2%; viability, T/C (second compound 0.0316 µM, first compound 1 µM): 29.7%; viability, T/C (second compound 0.0316 µM, first compound 3.16 µM): 44.9%; viability, T/C (second compound 0.0316 µM, first compound 10 µM): 44.9%; viability, T/C (second compound 0.1 µM, first compound 0.0316 µM): 34.3%; viability, T/C (second compound 0.1 µM, first compound 0.1 µM): 31.5%; viability, T/C (second compound 0.1 µM, first compound 0.316 µM): 33.1%; viability, T/C (second compound 0.1 µM, first compound 1 µM): 25.6%; viability, T/C (second compound 0.1 µM, first compound 3.16 µM): 35.8%; viability, T/C (second compound 0.1 µM, first compound 10 µM): 59.3%; viability, T/C (second compound 0.316 µM, first compound 0.0316 µM): 38.4%; viability, T/C (second compound 0.316 µM, first compound 0.1 µM): 33.9%; viability, T/C (second compound 0.316 µM, first compound 0.316 µM): 21.7%; viability, T/C (second compound 0.316 µM, first compound 1 µM): 34.6%; viability, T/C (second compound 0.316 µM, first compound 3.16 µM): 46.1%; viability, T/C (second compound 0.316 µM, first compound 10 µM): 51.9%; viability, T/C (second compound 1 µM, first compound 0.0316 µM): 31.8%; viability, T/C (second compound 1 µM, first compound 0.1 µM): 32.3%; viability, T/C (second compound 1 µM, first compound 0.316 µM): 19.1%; viability, T/C (second compound 1 µM, first compound 1 µM): 22%; viability, T/C (second compound 1 µM, first compound 3.16 µM): 46.3%; viability, T/C (second compound 1 µM, first compound 10 µM): 55.5%

How did the viability, T/C (compound 0.00316 µM) turn out when `CCN1CCN(Cc2ccc(Nc3ncc(F)c(-c4cc(F)c5nc(C)n(C(C)C)c5c4)n3)nc2)CC1` was run?
The viability, T/C was 102% [middle of 4 runs].

And the viability, T/C (compound 0.0316 µM)?
The viability, T/C was 87% [middle of 4 runs].

What about the viability, T/C (compound 0.1 µM) of the same compound?
The viability, T/C was 81.5% [middle of 4 runs].

And the IC50 (curve of compound)?
The IC50 was greater than 1000 nM.
